Measurements: ChEMBL document CHEMBL4196150, “Structurally Diverse Highly Oxygenated Triterpenoids from the Roots of Ailanthus altissima and Their Cytotoxicity” (J Nat Prod, 2018)

How the values were obtained:
Assay type in all cases: functional, cell-based
HepG2 = experiment: Cytotoxicity against human HepG2 cells after 72 hrs by MTT assay; conditions: HepG2, 72 h
786-0 = experiment: Cytotoxicity against human 786-O cells after 72 hrs by MTT assay; conditions: 786-0, 72 h
A549 = experiment: Cytotoxicity against human A549 cells after 72 hrs by MTT assay; conditions: A549, 72 h
HeLa = experiment: Cytotoxicity against human HeLa cells after 72 hrs by MTT assay

Compound	IC50 (HepG2) [µM]	IC50 (786-0) [µM]	IC50 (A549) [µM]	IC50 (HeLa) [µM]
C[C@@H](C[C@@H](O)[C@H](O)C(C)(C)O)[C@@H]1CC[C@]2(C)C3=CC[C@H]4C(C)(C)C(=O)CC[C@]4(C)[C@H]3CC[C@@]12C	> 40	> 40	> 40	> 40
C=C(C)[C@H](O)[C@H]1C=C([C@@H]2CC=C3[C@]4(C)[C@H](O)C[C@H]5C(C)(C)OC(=O)C=C[C@]5(C)[C@H]4[C@H](OC(=O)/C(C)=C/C)C[C@]32C)C(=O)O1	> 40	> 40	> 40	> 40
CC(C)(O)[C@@H]1OC[C@H]([C@@H]2CC[C@]3(C)C4=CC[C@H]5C(C)(C)C(=O)CC[C@]5(C)[C@H]4CC[C@@]23C)C[C@H]1O	> 40	> 40	> 40	> 40
CC(C)(O)[C@@H]1OC[C@H]([C@@H]2CC[C@]3(C)C4=CC(=O)[C@H]5C(C)(C)C(=O)CC[C@]5(C)[C@H]4CC[C@@]23C)C[C@H]1O	> 40	> 40	> 40	> 40
C/C=C(\C)C(=O)O[C@@H]1C[C@]2(C)C(=CC[C@H]2C2=C[C@H]([C@H](O)C(C)(C)OC)OC2=O)[C@]2(C)[C@H](O)C[C@H]3C(C)(C)OC(=O)C=C[C@]3(C)[C@@H]12	> 40	> 40	> 40	> 40
CC1(C)C(=O)CC[C@]2(C)[C@H]3C[C@@H](O)[C@@H]4[C@@H]([C@]5(C)CCC(=O)O5)CC[C@@]4(C)[C@]3(C)CC[C@@H]12	> 40	> 40	> 40	> 40
C/C=C(\C)C(=O)O[C@@H]1C[C@]2(C)C(=CC[C@H]2[C@@H]2C[C@H]([C@H](O)C(C)(C)OC)O[C@H]2OC)[C@]2(C)[C@H](O)C[C@H]3C(C)(C)OC(=O)C=C[C@]3(C)[C@@H]12	> 40	> 40	> 40	> 40
COC(C)(C)[C@@H](O)[C@H]1C=C([C@@H]2CC(=O)[C@@H]3[C@@]2(C)CC[C@@H]2[C@@]4(C)C=CC(=O)OC(C)(C)[C@@H]4C[C@@H](OC(C)=O)[C@]23C)C(=O)O1	> 40	> 40	> 40	> 40
COC(=O)CC[C@]1(C)[C@H]2CC[C@@]3(C)[C@H]([C@@H](C)C[C@@H](O)[C@H](O)C(C)(C)O)CC[C@]3(C)C2=CC[C@H]1C(C)(C)O	35.5	27.4	38.6	38.4
C/C=C(\C)C(=O)O[C@@H]1C[C@]2(C)C(=CC[C@H]2C2=C[C@H]([C@H](O)C(C)(C)O)OC2=O)[C@]2(C)[C@H](O)C[C@H]3C(C)(C)OC(=O)C=C[C@]3(C)[C@@H]12	> 40	> 40	> 40	> 40
C/C=C(\C)C(=O)O[C@@H]1C[C@]2(C)C(=CC[C@H]2C2=CO[C@@H]([C@H](O)C(C)(C)O)C2)[C@]2(C)[C@H](O)C[C@H]3C(C)(C)OC(=O)C=C[C@]3(C)[C@@H]12	38.8	34.4	39.8	33.2
C/C=C(\C)C(=O)O[C@@H]1C[C@]2(C)C(=CC[C@H]2[C@@H]2C[C@H]([C@H](O)C(C)(C)OC)O[C@@H]2OC)[C@]2(C)[C@H](O)C[C@H]3C(C)(C)OC(=O)C=C[C@]3(C)[C@@H]12	38.8	8.2	12.5	38.4
CC1(C)C(=O)CC[C@]2(C)[C@H]3CC[C@@H]4[C@@H]([C@]5(C)CCC(=O)O5)CC[C@@]4(C)[C@]3(C)CC[C@@H]12 [CABRALELACTONE]	> 40	> 40	> 40	> 40
COc1cc2c(c(OC)c1OC)-c1ccc(OC)c(=O)cc1[C@@H](NC(C)=O)CC2 [COLCHICINE]	0.078	0.022	0.043	–
